From PMC7248905, “Development of UHPLC-MS/MS Method for Indirubin-3′-Oxime Derivative as a Novel FLT3 Inhibitor and Pharmacokinetic Study in Rats” (Molecules, 2020)
Like-named read-outs stand apart in the source and are kept apart here.

How the values were obtained:
[1] = Stability of LDD-2614 in rat plasma (freeze-thaw, long-term, short-term, autosampler); assay type: in vitro ADME; settings: for Measured Concentration: n = 5
Method: Stability studies using three QC samples for freeze-thaw stability (three freeze-thaw cycles lasting 12 h each), long-term stability (sample stored at −80 °C and analyzed after 2 weeks), short-term temperature stability (samples kept at room temperature for 6 h), and post-preparation stability (12 h in autosampler) were evaluated. The measurements of the analytes were compared with those from newly prepared QC samples at the same concentrations. The accuracy (RE) of all analytes ranged from −0.6% to 8.6% for the three freeze-thaw cycles, −5.5% to −2.6% for long-term stability, −3.6% to −0.1% for short-term stability, and −1.5% to 1.5% for post-preparation stability.
Stability was evaluated with rat plasma at the four QC concentrations. Three freeze (−80 °C) and thaw (room temperature, 25 °C and stand for 2 h) cycles, long-term stability (−80 °C for 2 weeks), short-term stability (room temperature for 6 h), and post-extraction stability (12 h in the autosampler at 4 °C) were tested. The concentrations of the prepared stability samples were compared to the QC samples prepared on the day of analysis. The stability samples were considered stable if recovered within 15% compared to the QC sample concentration.

[2] = Pharmacokinetic study in rats after intravenous and oral administration; assay type: in vivo, Sprague Dawley rats; set-up: AUC/Dose: unit not given here; settings: rat; for AUC(0-t) / clearance / MRT / half-life / Vd / Cmax / bioavailability: male, Sprague Dawley, plasma; for clearance: read-out: CL (time averaged total body clearance); for MRT: read-out: MRT (mean residence time) (converted); for Vd: read-out: Vd,ss (apparent volume of distribution at steady state); for Cmax: read-out: Cmax (maximum plasma concentration)
Description: The validated LC-MS/MS method was successfully implemented to quantify LDD-2614 in Sprague Dawley rat plasma to perform a pharmacokinetic study on LDD-2614 in rats after oral and intravenous administration.
Male Sprague Dawley rats (7–8 weeks, 230–250 g) were supplied from Samtaco (Osan, Korea) and were housed in cages before the experiments. All animal experiments were approved by the Dankook University’s Institutional Animal Care and Use Committee (approval no. DKU-19-029). All rats were kept in a light-controlled room maintained at a temperature of 23 ± 2 °C with 12 h light and dark cycles and a relative humidity of 50% ± 10%. The rats were given ad libitum access to standard food and water and acclimated to the environment for 7 days prior to the experiment.
The rats were fasted for at least 12 h prior to the start of the experiments and freely supplied water. On the morning of the test, the rats were anaesthetized with a mixture of alfaxan and rompun (75:25, v/v). For oral administration studies, the carotid artery was cannulated using a polyethylene tube (PE 60, 0.76 mm i.d., 1.22 mm o.d., Becton Dickinson, Franklin Lakes, NJ, USA) for efficient blood sampling. For intravenous administration studies, the carotid artery and jugular veins were cannulated for blood sampling and drug administration, respectively. Each cannula was exteriorized to the dorsal side of the neck. Then, each rat was individually housed in a rat metabolism cage and allowed to move freely. A recovery time of 3–4 h from anesthesia was allowed before drug administration. The rats were randomly divided into six groups as follows: the first three groups were orally administered LDD-2614 (4 mL/kg dissolved in distilled water) using a gastric gavage tube at doses of 1, 5, and 20 mg/kg, and the remaining three groups were intravenously injected over 1 min with LDD-2614 (4 mL/kg dissolved in distilled water) at doses of 1, 5, and 20 mg/kg. Samples of approximately 0.2 mL of blood were immediately collected via the carotid artery at 0 (before administration), 5, 15, 30, 60, 90, 120, 180, 240, 360, 480, and 1440 min after oral and intravenous administration. For intravenous administration, a sampling time of 1 min after administration was also added, and the remaining times were the same. The blood samples were immediately centrifuged at 12,000 rpm for 5 min. Each plasma sample was transferred into a new microtube and stored at −80 °C until used for LC–MS/MS analysis.
All data are expressed as mean ± standard deviation. The pharmacokinetic parameters were calculated using Phoenix WinNonlin 2.1 (Pharmasight, Mountain View, CA, USA). A noncompartmental model was used.

MV4-11 xenograft = system: MV4-11 xenograft; set-up: method as in PMID 32272419; settings: MV4-11 xenograft animal model, previous studies; cited from earlier work
MV4-11 cells = system: MV4-11 cells; set-up: method as in PMID 32272419; settings: AML line of MV4-11 cells, previous studies; cited from earlier work
FLT3 = system: FLT3; set-up: method as in PMID 32272419; settings: in vitro assays, previous studies; cited from earlier work
[3] = extracted rat plasma, autosampler 4 °C 12 h, nominal 0.3 ng/mL
[4] = extracted rat plasma, autosampler 4 °C 12 h, nominal 150 ng/mL
[5] = extracted rat plasma, autosampler 4 °C 12 h, nominal 400 ng/mL
[6] = rat plasma, long-term −80 °C 2 weeks, nominal 0.3 ng/mL
[7] = rat plasma, long-term −80 °C 2 weeks, nominal 150 ng/mL
[8] = rat plasma, long-term −80 °C 2 weeks, nominal 400 ng/mL
[9] = rat plasma, short-term room temp 6 h, nominal 0.3 ng/mL
[10] = rat plasma, short-term room temp 6 h, nominal 150 ng/mL
[11] = rat plasma, short-term room temp 6 h, nominal 400 ng/mL
[12] = rat plasma, three freeze-thaw cycles, nominal 0.3 ng/mL
[13] = rat plasma, three freeze-thaw cycles, nominal 150 ng/mL
[14] = rat plasma, three freeze-thaw cycles, nominal 400 ng/mL

## O=C1Nc2ccc(F)cc2C1=C1Nc2ccc(F)cc2C1=NOCCN1CCNCC1 [LDD-2614]
[1]; [3]
  Accuracy (RE): −1.1%
  Measured Concentration: 0.30 ± 0.03 ng/mL
[1]; [4]
  Accuracy (RE): −1.5%
  Measured Concentration: 147.8 ± 2.98 ng/mL
[1]; [5]
  Accuracy (RE): 1.5%
  Measured Concentration: 410.2 ± 24.3 ng/mL
[1]; rat plasma, freeze-thaw, long-term, short-term, post-preparation
  degradation under the different storage and analysis conditions: no significant degradation observed
[1]; [6]
  Accuracy (RE): −4.8%
  Measured Concentration: 0.29 ± 0.02 ng/mL
[1]; [7]
  Accuracy (RE): −2.6%
  Measured Concentration: 146.1 ± 0.65 ng/mL
[1]; [8]
  Accuracy (RE): –5.5%
  Measured Concentration: 378.1 ± 17.7 ng/mL
[1]; [9]
  Accuracy (RE): −0.1%
  Measured Concentration: 0.30 ± 0.03 ng/mL
[1]; [10]
  Accuracy (RE): −3.6%
  Measured Concentration: 144.6 ± 6.46 ng/mL
[1]; [11]
  Accuracy (RE): −1.2%
  Measured Concentration: 395.1 ± 13.0 ng/mL
[1]; [12]
  Accuracy (RE): 8.6%
  Measured Concentration: 0.33 ± 0.02 ng/mL
[1]; [13]
  Accuracy (RE): −0.6%
  Measured Concentration: 149.1 ± 1.31 ng/mL
[1]; [14]
  Accuracy (RE): −0.3%
  Measured Concentration: 398.9 ± 6.04 ng/mL
[2]; intravenous, 1 mg/kg, n = 7, mean ± SD
  AUC(0-t): 635 ng·h/mL
[2]; intravenous, 1 mg/kg
  clearance: 30.7 ± 13.6 mL/min/kg
  MRT: 4.53 h
  Vd: 9.62 ± 3.38 L/kg
  AUC/Dose: 38.1 ± 18.5
[2]; intravenous, 1 mg/kg, read-out: T1/2 (terminal half-life)
  half-life: 4.91 ± 0.542 h
[2]; intravenous, 5 mg/kg, n = 5, mean ± SD
  AUC(0-t): 3510 ng·h/mL
[2]; intravenous, 5 mg/kg
  clearance: 20.8 ± 8.4 mL/min/kg
  MRT: 4.76 h
  Vd: 6.42 ± 2.44 L/kg
  AUC/Dose: 42.1 ± 12.9
[2]; intravenous, 5 mg/kg, read-out: T1/2 (terminal half-life)
  half-life: 3.31 ± 0.575 h
[2]; intravenous, 20 mg/kg, n = 6, mean ± SD
  AUC(0-t): 14400 ng·h/mL
[2]; intravenous, 20 mg/kg
  clearance: 23.2 ± 3.7 mL/min/kg
  MRT: 5.88 h
  Vd: 8.67 ± 2.08 L/kg
  AUC/Dose: 43.2 ± 7.5
[2]; intravenous, 20 mg/kg, read-out: T1/2 (terminal half-life)
  half-life: 3.38 ± 0.778 h
[2]; intravenous, dose range 1–20 mg/kg, terminal phase, read-out: half-life (T1/2)
  half-life: 3 to 4 h
[2]; oral, 1 mg/kg, n = 6, mean ± SD
  AUC(0-t): 73.8 ng·h/mL
[2]; oral, 1 mg/kg
  Cmax: 5.96 ± 1.77 ng/mL
  AUC/Dose: 4.43 ± 0.39
[2]; oral, 1 mg/kg, read-out: F (bioavailability)
  bioavailability: 11.7%
[2]; oral, 5 mg/kg, n = 6, mean ± SD
  AUC(0-t): 390 ng·h/mL
[2]; oral, 5 mg/kg
  Cmax: 43.7 ± 8.2 ng/mL
  AUC/Dose: 4.69 ± 3.05
[2]; oral, 5 mg/kg, read-out: F (bioavailability)
  bioavailability: 11.1%
[2]; oral, 20 mg/kg, n = 5, mean ± SD
  AUC(0-t): 1020 ng·h/mL
[2]; oral, 20 mg/kg
  Cmax: 120 ± 33.4 ng/mL
  AUC/Dose: 3.05 ± 1.24
[2]; oral, 20 mg/kg, read-out: F (bioavailability)
  bioavailability: 7.1%
[2]; oral, doses 1–20 mg/kg, compared with intravenous AUClast, read-out: bioavailability after oral administration
  bioavailability: 7.1 to 11.7%
[2]; intravenous, dose range 1–20 mg/kg
  dose linearity of pharmacokinetics: linear pharmacokinetic characteristics were observed
[2]; oral, 20 mg/kg versus 5 mg/kg (four-fold increase in dose)
  increase in AUC: approximately 2.5 fold
MV4-11 xenograft
  in vivo antitumor activity: significant in vivo antitumor activity
MV4-11 cells
  anti-proliferative activity: anti-proliferative activity
FLT3
  FLT3 inhibition: FLT3 inhibition
